Data set [1] deals with B82L fibroblasts. In kind it is cell-based, mouse. The note with it: 6 h. The protocol: FIGS. 6A-6H—Inhibition of B82L fibroblast and HMEC-1 cell attachment and spreading on VN by synstatin82-130. B82L fibroblasts, which rely on the αvβ5 integrin for attachment to VN, and human dermal microvascular endothelial cells, which rely on both the αvβ3 and αvβ5 integrins for attachment to VN, were plated in the absence of peptide (FIGS. 6A, 6E) or in the presence of 0.1 (FIGS. 6B, 6F), 0.3 (FIGS. 6C, 6G) or 1 μM (FIGS. 6D, 6H) synstatin82-130 for 2 hr and processed as described in FIG. 2.
Cell adhesion and spreading assays were performed with modification to the previous procedures (Lebakken and Rapraeger, 1996. Briefly, human plasma vitronectin or fibronectin at 10-30 μg/ml were applied to nitrocellulose-coated ten well slides (Erie Scientific) and incubated for 1-2 h at 37° C. Slides were blocked with 1.0% heat-denatured bovine serum albumin for a minimum of 30 min at 37° C. Cells were detached from the substratum using 5 mM EDTA in Tris-buffered saline and resuspended in HEPES-buffered culture medium containing 0.1% heat-denatured BSA. Cells were plated at a density of 15,000 cells per well and allowed to attach and spread for 2 h prior to fixation in 4% paraformaldehyde in CMF-PBS. For fluorescence microscopy, fixed cells were permeabilized in 0.2% Triton X-100, labeled with rhodamine-conjugated phalloidin and analyzed using fluorescence microscopy. […]

Data set [2] can be described thus: Active SSTN in blood detected on dot blots. In kind it is in vivo. The settings on record: mouse. The protocol: Lastly, SSTN was tested in the in vivo corneal angiogenesis assay. Polyhydroxyethylmethylacrylate pellets (0.25 μL) containing 67 ng FGF-2 and sucralfate as a slow release agent were implanted into the avascular mouse cornea. After seven days, fluorescent dextran was injected suborbitally to highlight the vascular system and the mice were sacrificed. […] To supply the inhibitor in a more quantifiable and physiological manner, recombinant mS1ED or SSTN were delivered systemically via Alzet osmotic pumps implanted subcutaneously on the backs of the animals. […] To correlate this with the active concentration in the plasma, the inventors took advantage of rabbit polyclonal antibodies generated against mS1ED, which detect active SSTN on dot blots. […] Using this method to detect active SSTN in the blood collected from animals after 1 week of SSTN treatment, SSTN is shown to be in the blood at 125-150 nM when present at 10 μM in the osmotic pump.

Data set [3] addresses T1, syndecan-1 association with the αvβ3 integrin (Homo sapiens, UniProt P05106+P06756).
T1 construct: endogenous in cells; host or cells: MDA-MB-231 human mammary carcinoma cells (some also transfected with mouse syndecan-1 constructs)
Kind of data set: Co-immunoprecipitation of αvβ3 integrin with syndecan-1 from MDA-MB-231 cells. It is filed as binding. The text has this:
FIGS. 8A-8D—SSTN disrupts association of syndecan-1 with the αvβ3 and αvβ5 integrins. (FIG. 8A) Diagram of mouse syndecan-4 (mS4), human syndecan-1 (hS1) and mouse syndecan-1 (mS1) and mS1 deletion mutants showing which proteoglycans are able to activate the αvβ3 and αvβ5 integrins. (FIG. 8B) Flow cytometry of human aortic endothelial cells (HAEC), human dermal microvascular endothelial cells (HMEC-1) or mouse aortic endothelial cells (MAEC) using human or mouse-specific antibodies for syndecan-1, αvβ3, and αvβ5. The β5 subunit is detected by Western blot in mouse cells and is compared to B82L fibroblasts known to express this integrin; (FIG. 8C) Human syndecan-1 is immunoprecipitated from HMEC-1 cells in the presence or absence of 30 μM GST, 30 μM GST-mS1ED (mouse syndecan-1 ectodomain), or 1 μM SSTN and detected on blots along with co-precipitating β3 or β5 integrin. (FIG. 8D) Human syndecan-1 is immunoprecipitated from MDA-MB-231 human mammary carcinoma cells expressing full-length mouse syndecan-1 (F1-mS1), a mouse mutant bearing deletion of amino acids 67-121 (mS1^Δ67-121), or vector alone (NEO) and blotted for the co-precipitation of the αvβ3 integrin by detection of the β3 subunit. […]

For data set [4], the system named is MDA-MB-231 human mammary carcinoma cells. The settings on record: MDA-MB-231 on vitronectin; shown previously (Beauvais et al., 2004); read-out: IC50, block of cell spreading on VN; cited from earlier work.
For data set [5], the system named is B82L fibroblasts. The settings on record: B82L cells; McQuade et al., 2006; read-out: IC50, recognition of VN; cited from earlier work.

Where two headings read alike, the source gives them in different places. Where no end group is shown, it is not given here.

We go through two molecules from patent US10864251B2, “Peptides of syndecan-1 for inhibiting angiogenesis” (Wisconsin Alumni Research Foundation, priority 2006, dated 2020).

T1 sequence (P06756 31-889 limits assumed): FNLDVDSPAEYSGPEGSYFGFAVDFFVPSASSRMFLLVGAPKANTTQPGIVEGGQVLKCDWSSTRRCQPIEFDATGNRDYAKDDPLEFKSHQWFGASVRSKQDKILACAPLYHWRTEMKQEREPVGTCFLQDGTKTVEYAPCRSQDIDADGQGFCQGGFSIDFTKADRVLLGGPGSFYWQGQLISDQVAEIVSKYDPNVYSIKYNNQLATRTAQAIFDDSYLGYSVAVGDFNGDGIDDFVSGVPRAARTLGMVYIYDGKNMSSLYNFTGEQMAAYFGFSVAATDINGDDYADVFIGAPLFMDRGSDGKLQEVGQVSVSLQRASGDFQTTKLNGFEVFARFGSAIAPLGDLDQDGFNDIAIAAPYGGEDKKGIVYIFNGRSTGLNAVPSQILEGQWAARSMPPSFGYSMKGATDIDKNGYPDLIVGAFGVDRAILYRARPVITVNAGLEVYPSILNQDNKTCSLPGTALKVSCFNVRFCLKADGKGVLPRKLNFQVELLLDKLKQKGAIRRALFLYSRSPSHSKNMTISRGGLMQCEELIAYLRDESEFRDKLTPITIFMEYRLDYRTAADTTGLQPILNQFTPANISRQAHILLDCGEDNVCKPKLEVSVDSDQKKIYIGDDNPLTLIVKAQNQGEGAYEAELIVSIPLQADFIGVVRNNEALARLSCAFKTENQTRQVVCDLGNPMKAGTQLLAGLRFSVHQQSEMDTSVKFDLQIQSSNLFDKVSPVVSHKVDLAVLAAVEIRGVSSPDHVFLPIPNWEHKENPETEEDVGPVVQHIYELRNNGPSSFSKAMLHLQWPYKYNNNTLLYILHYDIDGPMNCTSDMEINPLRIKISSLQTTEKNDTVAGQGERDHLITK
T1 sequence (P06756 891-1048 limits assumed): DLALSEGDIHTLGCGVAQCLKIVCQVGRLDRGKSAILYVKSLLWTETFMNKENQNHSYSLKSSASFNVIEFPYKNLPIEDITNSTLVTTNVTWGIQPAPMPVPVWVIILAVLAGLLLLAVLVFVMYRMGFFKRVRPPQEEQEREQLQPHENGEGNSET
T1 sequence (P05106 27-788): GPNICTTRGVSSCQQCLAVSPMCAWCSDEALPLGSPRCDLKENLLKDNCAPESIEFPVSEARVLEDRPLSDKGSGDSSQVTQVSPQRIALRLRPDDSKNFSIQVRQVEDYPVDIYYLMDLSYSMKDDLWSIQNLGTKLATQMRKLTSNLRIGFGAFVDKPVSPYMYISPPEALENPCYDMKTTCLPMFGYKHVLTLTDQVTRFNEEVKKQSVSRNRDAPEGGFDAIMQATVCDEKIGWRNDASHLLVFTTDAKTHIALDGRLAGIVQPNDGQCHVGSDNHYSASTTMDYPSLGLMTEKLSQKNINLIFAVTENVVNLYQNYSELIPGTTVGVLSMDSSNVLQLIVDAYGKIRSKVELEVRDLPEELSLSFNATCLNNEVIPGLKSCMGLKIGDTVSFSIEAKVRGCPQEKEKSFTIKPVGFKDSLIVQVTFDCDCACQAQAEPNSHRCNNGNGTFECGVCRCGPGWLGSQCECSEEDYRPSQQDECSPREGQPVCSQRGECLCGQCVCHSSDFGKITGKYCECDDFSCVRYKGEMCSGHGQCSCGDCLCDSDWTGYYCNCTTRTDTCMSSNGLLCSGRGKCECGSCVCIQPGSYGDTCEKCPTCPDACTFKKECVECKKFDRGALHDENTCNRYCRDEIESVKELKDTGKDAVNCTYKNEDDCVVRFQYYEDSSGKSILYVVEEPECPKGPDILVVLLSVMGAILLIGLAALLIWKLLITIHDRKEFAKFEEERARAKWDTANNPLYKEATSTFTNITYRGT

With “SNTETAFTSVLPAGEKPEEGEPVLHVEAEPGFTARDKEKEVTTRPRETV [synstatin82-130]”, the 50% inhibitory concentration (IC50) in data set [1] is approximately 0.1 µM. In addition, the level at time molar at 168 h in data set [2] (blood, sc, after 1 week, 10 μM in the osmotic pump, read-out: concentration in the blood) lay in the range of 125 to 150 nM. Also, in data set [2] (suggested from blood level), the “clearance rate in the plasma” value was 10 to 13 h.

B1: S1ED: recombinant mouse Sdc1 ectodomain (amino acids 18-251), expressed in bacteria as GST fusion or 6×His-tagged protein (protein)
chain: QPALPQIVAVNVPPEDQDGSGDDSDNFSGSGTGALPDTLSRQTPSTWKDVWLLTATPTAPEPTSSNTETAFTSVLPAGEKPEEGEPVLHVEAEPGFTARDKEKEVTTRPRETVQLPITQRASTVRVTTAQAAVTSHPHGGMQPGLHETSAPTAPGQPDHQPPRVEGGGTSVIKEVVEDGTANQLPAGEGSGEQDFTFETSGENTAVAAVEPGLRNQPPVDEGATGASQSLLDRK
modifications: left off: a dimerising Fc or GST
notes: recombinant mouse Sdc1 ectodomain (amino acids 18-251), expressed in bacteria as GST fusion or 6×His-tagged protein
Turning to B1, in data set [3], the “co-immunoprecipitation of αvβ3 integrin with human or mouse syndecan-1” value is “competed”. For the same molecule, the IC50 in data set [4] and in data set [5] was 3 to 10 µM in each case.
